Assay results published in US20020172990A1, “Cyclin dependent kinase 5 phosphorylation of disabled 1 protein” (priority 2002, published 2002).

System: Dab1 phosphorylation in embryonic neurons
Test: Reelin stimulation of embryonic neurons, Dab1 immunoprecipitation and Western blot
Assay type: cell-based, mouse
Procedure: Stimulation of embryonic neurons with purified Reelin has been described previously (Keshvara et al., J Biol Chem 276:16008-16014, 2001). Briefly, neurons obtained by trituration of embryonic brains were treated either with purified recombinant Reelin or with a control supernatant for 15 minutes at 37° C. After incubation neurons were either snap frozen or lysed immediately. Reelin-treated neuronal pellets were lysed in cell lysis buffer (25 mM Tris-HCl, 1% Nonidet P-40, 150 mM NaCl, 5 mM EDTA, 1 mM sodium orthovanadate, 20 mM sodium fluoride, and 20 μg/ml each of aprotinin and leupeptin). Whole brains were also homogenized in this lysis buffer. Cell lysates as well as brain homogenates were clarified by centrifugation at 10,000× g at 4° C. for 20 min.
Cell or brain lysates were incubated with anti-Cdk5 or anti-Dab1 antibodies at 4° C. for 2 hr. Immune complexes were collected with protein G-agarose beads (Pierce) and washed three times with cell lysis buffer. Immunoprecipitates were boiled in SDS sample buffer, separated by SDS-PAGE, and blotted to nitrocellulose membranes. Nitrocellulose membranes were blocked with 5% non-fat dry milk in TBST (50 mM Tris, pH 7.4, 150 mM NaCl, 1% Tween 20) for 1 hr at room temperature. The following antibodies were used for various immunoblots: anti-PSer491 (1:1000), anti-Cdk5 (1:2000), anti-PY198 (1:100), 4G10 (1:2000) (Upstate Biotechnology, Lake Placid, N.Y.), and anti-Dab1 (CT38, 1:5000). All dilutions were made in blocking solution, and incubations were carried out at room temperature for one hour. The membranes were washed in TBST and incubated with horseradish peroxidase-conjugated secondary antibody (1:10,000) for 1 hr. Detection was carried out using Super Signal West Dura Extended Duration Substrate (Pierce).
Since the accumulation of hypophosphorylated Dab1 in Cdk5^−/− neurons implies that Reelin signaling is defective, we sought to determine whether the defect in Reelin signaling is intrinsic to Cdk5-deficient neurons or whether it arises as an indirect consequence of the ectopic location of these neurons. […]

## Reelin: Large secreted glycoprotein; purified recombinant Reelin used to stimulate embryonic neurons
Neurons from E16.5 Cdk5-/- embryos, Reelin-enriched DMEM vs DMEM alone, 4G10 anti-phosphotyrosine blot
  Tyrosine phosphorylation of Dab1: sharp increase in tyrosine phosphorylation of Dab1
Neurons from E16.5 reeler brains, exogenous Reelin 15 minutes at 37° C.
  Tyrosine phosphorylation of Dab1: sharp increase in tyrosine phosphorylation of Dab1
Neurons from E16.5 reeler brains, exogenous Reelin 15 minutes at 37° C., anti-PSer491 blot
  Serine 491 phosphorylation of Dab1: did not cause any noticeable change
